This is an account of results in US5414144A, “Propylene glycol cyclohexyl ether derivatives, method of producing same and uses thereof” (Asahi Kasei Kogyo Kabushiki Kaisha, priority 1993, dated 1995).

SMILES strings stand for the structures. Read-outs that look alike come from different tables or passages of the source.

For series [1] the following is noted: background, result in words; cited from earlier work.
Another series is described as follows: Flash point (JIS-K2265). Type of series: physicochemical.
Another series can be described thus: Separability from water. Type of series: physicochemical. The note with it: result in words. The method, then:
(6) Separability from Water
An equivolume mixture of a sample compound and water was vigorously shaken and then allowed to stand. After a period of 5 minutes, the degree of separation of the sample compound from water was judged by the naked eye.

Series [2] is classed as physicochemical. The procedure:
The boiling point was determined from the temperature and pressure of the vapor at the top of the distillation column.

For series [3] the following is noted: for Solubility (In water) / Solubility (Water in): 20° C.; for Solubility (In water): solubility of the sample compound in water; for Solubility (In water) / solubility in water: 30 min; for Solubility (Water in): solubility of water in the sample compound; for solubility in water: Table 2. The procedure: (3) Solubility ("water in" and "in water")
10 g of a sample compound (liquid) was mixed with 10 g of water and then allowed to stand still for 30 minutes, so that the mixture was permitted to separate into a sample compound layer and an aqueous layer. Then, the water content of the sample compound layer was measured using a Karl Fischer moisture meter manufactured by Kyoto Electronics Co., Ltd., Japan, and the obtained value was taken as a solubility of water in the sample compound. The content of the sample compound in the aqueous layer was measured using GC and the obtained value was taken as a solubility of the sample compound in water.

A further series is described as follows: Viscosity. In kind it is physicochemical. To be noted: 25° C. The method, then:
The viscosity was measured at 25° C. using a digital viscometer (Model DVL-B, manufactured by Toki Sangyo Co., Ltd., Japan).

The next series can be described thus: Relative drying rate. In kind it is physicochemical. The note with it: 50° C., 20 minutes; relative to Elease M-9000. The procedure: (10) Relative Drying Rate
(§1) 10 g of a sample compound and 10 g of a glycol ether-type detergent (Elease M-9000, manufactured by Asahi Kasei Kogyo K.K., Japan) were individually placed in an oven and heated at 50° C. for 20 minutes. Then, a measurement was done with respect to the decrease in the weight of the sample compound as well as the decrease in the weight of Elease M-9000. The relative drying rate was calculated according to the following formula: [formula] (11) Oil Solubility Characteristics

Series [4] can be described thus: Oil solubility characteristics. Type of series: physicochemical. To be noted: 100 g sample compound. The procedure:
as §1
Each of the oils mentioned below was individually added to 100 g of a sample compound while stirring until a saturation of the sample compound with the oil was reached. The solubility (%) was expressed in terms of the percent expression of the weight of the oil dissolved in 100 g of the sample compound, with the dissolution of 100 g of the oil being taken as 100%. For example, when the amount of the oil dissolved was n g, the solubility was expressed as n %. The above-mentioned oils were: a mineral oil (Smoil PS-260, manufactured by Matsumura Sekiyu Kenkyusho, Japan), a drawing oil (Daphne Masterdraw 533WD, manufactured by Idemitsu Kosan Co., Ltd., Japan), a press oil (Uni Press DP-120, manufactured by Nippon Sekiyu Co., Ltd., Japan) and a rosin oil (sold by Kishida Kagaku Co., Ltd., Japan).

Series [5] is described as follows: Overall comparison of properties in Table 2. To be noted: Table 2 comparison in words. The procedure: Properties of the product were measured and results of the measurements are shown in Table 2, together with those of Example 1 for easy comparison.

Turning to `COCCOCCOC` [diethylene glycol dimethyl ether], in series [1], the solubility in water entry was “extremely high solubility in water” and the toxicity result is given as “high toxicity”.
Turning to `CCCCCCOCCOCCO` [Comparative Example 2, Diethylene glycol mono-n-hexyl ether], the Flash point in “Flash point (JIS-K2265)” came out at 140 °C. Besides, in “Separability from water”, the separability from water result is “good”.
Turning to `CCCCCCOCCO` [Comparative Example 1, Ethylene glycol mono-n-hexyl ether], the Boiling point in series [2] came to 208 °C. Further, the Flash point in “Flash point (JIS-K2265)” stood at 82 °C. Also, in [3], the “Solubility (In water)” value came to 1.0% and the “Solubility (Water in)” value is reported as 18.8%.
`C=C(C)C1CC=C(C)CC1` (stereo not drawn) [Comparative Example 6, Limonene]: the Flash point in the series “Flash point (JIS-K2265)” was 45 °C; in “Flash point (JIS-K2265)” (result in words), “low”. Further, the separability from water result in the series “Separability from water” is “good”.
As usually defined, the viscosity is the resistance of a fluid to flow. In the case of `CC(O)COC1CCCCC1` (stereo not drawn) [Comparative Example 9, 1-cyclohexyloxy-2-propanol], in series [2], the Boiling point amounted to 208 °C. In “Flash point (JIS-K2265)”, this molecule displayed a Flash point of 88 °C. For the same molecule, the “solubility in water” value in series [3] was found to be 1%. Further, the viscosity in “Viscosity” came out at 14 cP. For the same molecule, the Relative drying rate in the series “Relative drying rate” came out at 36%. In series [4], the “Oil solubility characteristics (Drawing oil)” value was “E (Less than 2%)”, the “Oil solubility characteristics (Mineral oil)” value is “A (50% or more)”, the “Oil solubility characteristics (Press oil)” value was “A (50% or more)” and the “Oil solubility characteristics (Rosin oil)” value is on record as “C (10% to less than 20%)”. Moreover, in series [1], the “dissolving power for oils” value was “poor dissolving power for oils”, the drying rate result is recorded as “low drying rate”, the solubility in water entry is “high solubility in water” and the viscosity entry was “high viscosity”.
The molecule `CCCCOCC(C)OCCCC` (stereo not drawn) [compound 5, Propylene glycol di-n-butyl ether] had a Boiling point in [2] of 190 °C. Further, the Flash point in “Flash point (JIS-K2265)” was 69 °C. Besides, in series [3], the “Solubility (In water)” value came out at 2.0% and the “Solubility (Water in)” value came to 0.6%.
With `COCC(C)OC(C)=O` (stereo not drawn) [compound 4, Propylene glycol methyl ether acetate], the Boiling point in series [2] amounted to 146 °C. Further, in the series “Flash point (JIS-K2265)”, the Flash point stood at 47 °C. Moreover, in [3], the “Solubility (In water)” value is listed as 3.0% and the “Solubility (Water in)” value is recorded as 19.0%.
In [2], `COCC(C)OC1CCCCC1` (stereo not drawn) [Example 1, propylene glycol methyl cyclohexyl ether] displayed a Boiling point of 175 °C. Also, in the series “Flash point (JIS-K2265)”, the Flash point worked out at 73 °C. Further, in series [3], the “Solubility (In water)” value is recorded as 0.3%, the “Solubility (Water in)” value was determined as 1.4% and the “solubility in water” value was 0.3%. The molecule also had a viscosity in the series “Viscosity” of 2.4 cP. This molecule showed a Relative drying rate in the series “Relative drying rate” of 77%. Also, in series [4], the “Oil solubility characteristics (Drawing oil)” value is listed as “A (50% or more)”, the “Oil solubility characteristics (Mineral oil)” value is on record as “A (50% or more)”, the “Oil solubility characteristics (Press oil)” value is “A (50% or more)” and the “Oil solubility characteristics (Rosin oil)” value is “A (50% or more)”. For the same molecule, the “results vs Comparative Example 9 (relative drying rate, viscosity, solubility in water, oil solubility)” value in series [5] was “very superior”.
`CCOCC(C)OC1CCCCC1` (stereo not drawn) [Example 2, propylene glycol ethyl cyclohexyl ether] returned a Boiling point in series [2] of 192 °C. In the series “Flash point (JIS-K2265)”, the Flash point worked out at 80 °C. For the same molecule, in series [3], the “Solubility (In water)” value was found to be 0.2% and the “Solubility (Water in)” value worked out at 0.7%.
In the case of `CCOCCOCCOCC` [Comparative Example 8, Diethylene glycol diethyl ether], in the series “Flash point (JIS-K2265)”, the Flash point came out at 72 °C. In addition, in “Separability from water”, the separability from water result was “poor”. Moreover, in series [1], the solubility in water result is on record as “extremely high solubility in water” and the toxicity result is “high toxicity”.
Turning to `COCC(C)OC1CCCCC1O` (stereo not drawn) [Example 3, 2-hydroxycyclohexyloxymethoxypropane], the Boiling point in series [2] (Measured at 5 mm/Hg) stood at 93 °C. Moreover, in series [3], the “Solubility (In water)” value turned out to be 2.7% and the “Solubility (Water in)” value worked out at 11.7%.
As for `CCCCOCC(C)O` (stereo not drawn) [compound 3, Propylene glycol mono-n-butyl ether], in series [2], the Boiling point was determined as 170 °C. This molecule came in with a Flash point in the series “Flash point (JIS-K2265)” of 59 °C. Moreover, in series [3], the “Solubility (In water)” value is given as 5.6% and the “Solubility (Water in)” value came to 14.9%.
For `CCCCOCCOCCO` [Comparative Example 7, Diethylene glycol monobutyl ether], the Flash point in the series “Flash point (JIS-K2265)” amounted to 116 °C. The separability from water result in the series “Separability from water” was “poor”. Besides, in series [1], the solubility in water entry is “disadvantageously high”.
As to `CCCCCCOCCOCCO` [diethylene glycol monohexyl ether], the viscosity result in [1] was “disadvantageously high viscosity”.
